PMC10384572, “Marine Meroterpenoids Isolated from Gongolaria abies-marina Induce Programmed Cell Death in Naegleria fowleri” (Pharmaceuticals, 2023)
Where two headings read alike, the source gives them in different places.

Assays:
[1] = test system: N. fowleri ATCC® 30808 trophozoites; assay: Mitochondrial membrane potential (JC-1); format: cell-based, Naegleria fowleri; conditions: IC90 of compound, 24 h
Method: The evaluation of the programmed cell death induction by the meroterpenoids was performed in the ATCC® 30808™ N. fowleri trophozoites. Cells were incubated over 24 h with the IC90 (Table 1) of the compounds at 37 °C. In these experiments, the presence of different metabolic events which are characteristics of the programmed cell death process were evaluated. For this, five different apoptosis events marker kits (the Hoechst 33342/Propidium Iodide, SYTOX™ Green kit, CellROX® Deep Reagent, JC-1 Mitochondrial Membrane Potential Detection Kit, and the Celltiter-Glo® Luminescent Cell Viability Assay) were used according to manufacturer’s instructions. Furthermore, the percentage of stained cells was determined after incubating the treated and non-treated cells with the stains. The mitochondrial damage was evaluated using two different reagents. Firstly, the JC-1 Mitochondrial Membrane Potential Detection Kit (Cayman Chemicals Vitro SA, Madrid, Spain) was used to assess the failure of the mitochondrial membrane potential. Cells were incubated with the compounds at 37 °C to finally add the JC-1 reagent after 24 h. The JC-1 dye is presented in the mitochondria of untreated cells in aggregate form and emits red fluorescence. However, when the membrane potential decreases (unhealthy cells) the dye is presented in monomers, emitting green fluorescence. Images were obtained with an EVOS™ M5000 Imaging System (Invitrogen by Thermo Fisher Scientific). In the PCD assays, the number of stained and unstained cells was measured after the performance of the experiments. Regarding the JC-1 Mitochondrial Membrane Potential assays, the ratio between the emitted red fluorescence (at 595 nm) and green fluorescence (at 535 nm) was determined. For each kit, images (×40) with at least 80 cells were selected and analyzed. […] The graphs illustrate the mean value ± SD of three different tests. Finally, a one-way analysis of variance (ANOVA) was assessed to determine the statistical differences between the treated cells and the negative control amoebae, ** p < 0.01; *** p < 0.001; **** p < 0.0001 significant differences.

[2] = In vitro cytotoxicity against murine macrophages (alamarBlue); format: cell-based; conditions: mouse, J774A.1 murine macrophages (ATCC TIB-67), murine macrophages J774A.1, 24 h, mean ± SD
Method: Murine macrophages from the J774A.1 cell line (ATCC® TIB-67) were maintained in Dulbecco’s Modified Eagle’s medium (DMEM) in order to evaluate the toxicity of the compounds. In addition, 10% (v/v) FBS and 10 μg/mL gentamicin (Sigma-Aldrich, Madrid, Spain) were added to the growth medium. Cells were grown in a 5% CO2 atmosphere at 37 °C.
For the cytotoxicity assays, the same protocol as detailed in Section 4.4 above was used. Murine macrophages were incubated with serial dilutions of the evaluated compounds at 37 °C in a 5% CO2 atmosphere over 24 h. The obtained data were analyzed as described in the previous section in order to calculate the CC50.
(§1) The in vitro IC50, IC90, and CC50 of the compounds were determined by a non-linear regression with a 95% confidence limit. The SigmaPlot 12.0 software (Systat Sofware Inc., London, UK) was used to perform the data analysis using a paired two-tailed t-test. Values of p < 0.05 were considered significant. The data represent the mean value and the SD of the conducted three different experiments.

[3] = test system: N. fowleri ATCC® 30808 trophozoites; assay: ROS production (CellROX Deep Red); format: cell-based, Naegleria fowleri; conditions: IC90 of compound, 24 h
Method: The evaluation of the programmed cell death induction by the meroterpenoids was performed in the ATCC® 30808™ N. fowleri trophozoites. Cells were incubated over 24 h with the IC90 (Table 1) of the compounds at 37 °C. In these experiments, the presence of different metabolic events which are characteristics of the programmed cell death process were evaluated. For this, five different apoptosis events marker kits (the Hoechst 33342/Propidium Iodide, SYTOX™ Green kit, CellROX® Deep Reagent, JC-1 Mitochondrial Membrane Potential Detection Kit, and the Celltiter-Glo® Luminescent Cell Viability Assay) were used according to manufacturer’s instructions. Furthermore, the percentage of stained cells was determined after incubating the treated and non-treated cells with the stains. The determination of ROS generation was carried out using the CellROX Deep Red fluorescent assay (Thermo Fisher Scientific) following manufacturer’s instructions. Briefly, N. fowleri’s trophozoites were incubated with compounds over 24 h at 37 °C. After that, the CellROX stain was added and incubated with the cells for 30 min in the dark. […] In the PCD assays, the number of stained and unstained cells was measured after the performance of the experiments. Regarding the JC-1 Mitochondrial Membrane Potential assays, the ratio between the emitted red fluorescence (at 595 nm) and green fluorescence (at 535 nm) was determined. For each kit, images (×40) with at least 80 cells were selected and analyzed. […] The graphs illustrate the mean value ± SD of three different tests. Finally, a one-way analysis of variance (ANOVA) was assessed to determine the statistical differences between the treated cells and the negative control amoebae, ** p < 0.01; *** p < 0.001; **** p < 0.0001 significant differences.

N. fowleri ATCC® 30808 = assay: In vitro activity against N. fowleri trophozoites (alamarBlue), strain ATCC 30808; format: cell-based, Naegleria fowleri; conditions: for IC50 / IC90: Naegleria fowleri; for Anti-Naegleria activity (in words): both tested strains of N. fowleri
Method: (§2) The in vitro activity against N. fowleri trophozoites was evaluated in two different strains from the American Type Culture Collection (LG Promochem, Barcelona, Spain), ATCC® 30808™ and ATCC® 30215™. Cells were axenically grown in 2% Bactocasitone (w/v) medium (Thermo Fisher Scientific, Madrid, Spain) at 37 °C. Moreover, 10% (v/v) of fetal bovine serum (FBS) 0.3 μg/mL of Penicillin G Sodium Salt and 0.5 mg/mL of Streptomycin sulphate (Sigma-Aldrich, Madrid, Spain) were also added to the Bactocasitone medium.
(§3) For these assays, a colorimetric assay was conducted using the alamarBlue® reagent. Briefly, N. fowleri trophozoites were seeded in duplicate in a 96-well microtiter plate. After that, different concentrations of the evaluated meroterpenoids diluted in fresh Bactocasitone were added to the wells. The negative control consisted on the trophozoites incubated with the medium alone. Lastly, the alamarBlue® (Life Technologies, Madrid, Spain) reagent was added. Plates were incubated in slight agitation at 37 °C. After 48 h, the fluorescence of the wells was analyzed in an EnSpire Multimode Plate Reader (Perkin Elmer, Madrid, Spain) using a wavelength of excitation of 570 nm and a wavelength of emission of 585 nm.
(§4) In order to calculate the IC50 and IC90, a nonlinear regression analysis with a 95% confidence limit was performed.
as §1

N. fowleri ATCC® 30215 = assay: In vitro activity against N. fowleri trophozoites (alamarBlue), strain ATCC 30215; format: cell-based; conditions: Naegleria fowleri, ATCC30215, 48 h, mean ± SD
Method: as §2, §3, §4, §1

[4] = ATCC 30215 / ATCC 30808, range over the named compounds and both strains (ATCC 30808 and ATCC 30215), read-out: IC50 against N. fowleri
[5] = ATCC30808, N. fowleri trophozoites, 48 h, alamarBlue, mean ± SD
[6] = ATCC30808, N. fowleri trophozoites, 48 h, alamarBlue, mean ± SD, read-out: IC50 ATCC® 30808

SMILES	Mitochondrial membrane potential (JC-1) [1]	CC50 at 24 h [2]	CC90 at 24 h [2]	ROS production versus negative control (CellROX deep red) [3]	IC50 (N. fowleri ATCC® 30808; [4])	IC90 (N. fowleri ATCC® 30808; [5])	IC50 (N. fowleri ATCC® 30808; [6])	Anti-Naegleria activity (in words) (N. fowleri ATCC® 30808)	IC50 (N. fowleri ATCC® 30215)	IC90 (N. fowleri ATCC® 30215)	Selectivity index (SI) (N. fowleri ATCC® 30808; cytotoxicity in murine macrophages versus activity against N. fowleri)
COc1c(C)cc(O)cc1C/C=C(\C)CC(=O)/C=C(\C)CCC[C@@H](C)C(=O)/C=C/C(C)(C)O [1′Methoxyamentadione (3), 1′-methoxyamentadione]	mitochondrial membrane potential disruption	26.2 ± 2.25 µM	68.7 ± 7.46 µM	increased the level of ROS production	13.3 to 20.4 µM	64.9 ± 6.94 µM	19.9 ± 5.27 µM	active	16.5 ± 0.96 µM	59.7 ± 20.2 µM	
COc1c(C)cc(O)cc1C/C=C(\C)CC(=O)/C=C(/C)CCC[C@@H](C)C(=O)/C=C/C(C)(C)O [6Z-1′Methoxyamentadione (2), 6Z-1′-methoxyamentadione]	mitochondrial membrane potential disruption	26.6 ± 4.03 µM	67.2 ± 6.32 µM	increased the level of ROS production	13.3 to 20.4 µM	55.3 ± 8.28 µM	20.4 ± 4.07 µM	active	13.3 ± 0.96 µM	44.2 ± 14.9 µM	
COc1c(C)cc(O)cc1C/C=C(\C)CC(=O)/C=C(\C)CCCC(C)=O [Cystomexicone B (6), cystomexicone B]	mitochondrial membrane potential disruption	> 279 µM	> 500 µM	increased the level of ROS production		206 ± 16.6 µM	58.9 ± 10.1 µM	active	58.1 ± 5.85 µM	260 ± 41.1 µM	> 8.5
COc1c(C)cc(O)cc1C/C=C(\C)CC(=O)C/C(C)=C/CC[C@@H](C)C(=O)/C=C/C(C)(C)O [Gongolarone B (1), gongolarone B]	mitochondrial membrane potential disruption	25.6 ± 4.16 µM	72.9 ± 5.94 µM	increased the level of ROS production		58 ± 1.73 µM	21.9 ± 1.6 µM	active	18.9 ± 0.94 µM	68.3 ± 1.73 µM	
